pKi: −log10 of the molar value.
Experiments:
[1] = molecular target: CNQX-labeled non-NMDA receptors; assay: Inhibition of EAA receptor ligand binding, CNQX (CNQX-labeled non-NMDA receptors); details: for pKi: inhibition of EAA receptor ligand binding, CNQX-labeled non-NMDA receptors, read-out: Receptor Potency (Ki), CNOX; for selectivity for NMDA vs non-NMDA receptors: in words, from Table II data
[2] = tested on: KA receptors (KA-induced currents in rat brain mRNA-injected Xenopus oocytes); assay: Inhibition of KA-induced currents in rat brain mRNA-injected Xenopus oocytes; assay type: cell-based; details: for Potency to inhibit KA-induced currents, Ki: rat brain mRNA-injected Xenopus oocytes, voltage clamped at -60 to -70 mV, IC50 converted to Ki by Cheng-Prusoff equation
Method: Defolliculated oocytes obtained from Xenopus laevis females were injected with 30-75 ng of poly (A+) mRNA obtained from 21-day old male Sprague-Dawley rats. Oocytes were placed individually in 100 ml of antibiotic-supplemented modified Barthes solution (MBS, containing in mM: NaCl, 88; KCl 1.0; NaHCO3, 2.4 HEPES, 10; MgSO4 0.82; Ca(NO3)2, 0.33) in 96-well sterile plates and cultured for 48-120 hours prior to experimentation. Oocytes were inspected every 24 hours at which time the bathing solution is replaced with fresh MBS.
For electrophysiological studies, oocytes were positioned in a small recording chamber (500 ml) and superfused with antibiotic free MBS supplemented with CaCl2 (final concentration=1.4 mM). Oocytes are impaled with a single glass microelectrode, voltage clamped at -60 to -70 mV, and perfused by gravity feed at a rate of 3-5 ml/min at room temperature. […] Antagonists are coperfused with agonists.
Potencies to inhibit kainic acid-, AMPA- and NMDA/glycine-induced currents are determined from concentration-response curves. IC50 values are converted to Ki values for comparison purposes using the Cheng-Prusoff equation.

[3] = molecular target: T1, Glycine (strychnine insensitive glycine binding) (Rattus norvegicus, UniProt P35439); assay: Strychnine insensitive glycine binding; details: read-out: Receptor Potency (Ki), Glycine
T1 construct: from tissue
Method: Binding assays for the displacement of ^3 H!AMPA were performed as described by Murphy et al. (Neurochemical Reseach. 12: 775-781 1987!). KA binding assays were performed as described by London et al (Molecular Pharmacology. 15:492-505 1979!); strychnine insensitive glycine binding was evaluated by the method of Snell et al (European Journal of Pharmacology. 156: 105-110 1988!.

kainate receptors = details: U.S. Pat. No. 4,657,899, Table I on column 13; cited from earlier work
NMDA = details: U.S. Pat. No. 4,657,899; cited from earlier work
GLU = assay: Inhibition of EAA receptor ligand binding, GLU; details: read-out: Receptor Potency (Ki), GLU

Row | pKi [1] | Potency to inhibit KA-induced currents, Ki [2] | pKi [3] | selectivity for NMDA vs non-NMDA receptors [1] | pKi (GLU) | SMILES | activity in words of related compounds tested [2] | binding affinity for kainate receptors (in words) (kainate receptors) | NMDA antagonist activity (in words) (NMDA)
1 | 4.82 | 9.6 µM | – | quite selective | < 4.00 | O=c1cc(CP(=O)(O)O)c2cc(Cl)c(Cl)cc2[nH]1 [Example 5, 6,7-Dichloro-4-phosphonomethylquinolin-2-one] | – | – | –
2 | 4.23 | 32 µM | 5.00 | not very selective | 4.52 | O=c1cc(CP(=O)(O)O)c2ccc(Cl)cc2[nH]1 [Example 2, 7-Chloro-4-phosphonomethylquinolin-2-one] | – | – | –
3 | 4.04 | – | 3.64 | – | 3.22 | O=c1cc(CCP(=O)(O)O)c2ccc(Cl)cc2[nH]1 [Example 1, 7-Chloro-4-phosphonethylquinolin-2-one] | – | – | –
4 | 3.42 | 450 µM | < 3.00 | – | < 4.00 | O=C(O)c1cc(CCP(=O)(O)O)c2ccc(Cl)cc2n1 [Example 22, 2-Carboxy-7-chloro-4-phosphonethylquinoline] | – | – | –
5 | 4.42 | 18.2 µM | 4.55 | quite selective | < 4.00 | O=c1cc(CP(=O)(O)O)c2c(Cl)cc(Cl)cc2[nH]1 [Example 3, 5,7-Dichloro-4-phosphonomethylquinolin-2-one] | – | – | –
6 | 3.52 | – | < 3.00 | – | < 3.00 | O=c1cc(CP(=O)(O)O)c2ccc(Cl)c([N+](=O)[O-])c2[nH]1 [Example 25, 7-Chloro-8-nitro-4-phosphonomethylquinolin-2-one] | – | – | –
7 | 4.59 | 15.6 µM | 4.54 | not very selective | 4.46 | O=c1cc(CP(=O)(O)O)c2ccc(I)cc2[nH]1 [Example 4, 7-Iodo-4-phosphonomethylquinolin-2-one] | – | – | –
8 | – | > 100 µM | < 3.00 | – | < 3.52 | O=c1cc(P(=O)(O)O)c2ccc(Cl)cc2[nH]1 [Example 24, 7-Chloro-4-phosphonoquinolin-2-one] | – | – | –
9 | 4.19 | 129 µM | 4.17 | – | – | O=C(O)c1cc(CP(=O)(O)O)c2ccc(Cl)cc2n1 [Example 23, 2-Carboxy-7-chloro-4-phosphonomethylquinoline] | – | – | –

More lines, now with the values behind:

Row | SMILES | pKi [1] | Potency to inhibit KA-induced currents, Ki [2] | pKi [3] | selectivity for NMDA vs non-NMDA receptors [1] | pKi (GLU) | activity in words of related compounds tested [2] | binding affinity for kainate receptors (in words) (kainate receptors) | NMDA antagonist activity (in words) (NMDA)
10 | CCOP(=O)(Cc1cc(=O)[nH]c2cc(Cl)cc(Cl)c12)OCC [Example 21a, 5,7-Dichloro-4-(diethoxyphosphinyl)methylquinolin-2-one] | < 4.00 | 480 µM | 3.99 | – | – | essentially inactive | – | –
11 | NC(Cc1ccccc1CP(=O)(O)O)C(=O)O (stereo not drawn) [2-amino-3-2-phosphonomethylphenyl!propanoic acid] | – | – | – | – | – | – | very low binding affinity | antagonists of NMDA
12 | CCC(c1ccccc1CCCP(=O)(O)O)C(N)C(=O)O (stereo not drawn) [2-amino-3-2-(3-phosphonopropyl) phenyl!pentanoic acid] | – | – | – | – | – | – | very low binding affinity | antagonists of NMDA
13 | NC(Cc1ccccc1CCP(=O)(O)O)C(=O)O (stereo not drawn) [2-amino-3-2-(2-phosphonoethyl)phenyl!propanoic acid] | – | – | – | – | – | – | very low binding affinity | antagonists of NMDA
14 | NC(CCCc1ccccc1CP(=O)(O)O)C(=O)O (stereo not drawn) [2-amino-5-2-phosphonomethylphenyl!pentanoic acid] | – | – | – | – | – | – | very low binding affinity | antagonists of NMDA
15 | O=c1cc(CP(=O)(O)O)c2c([N+](=O)[O-])c(Cl)ccc2[nH]1 [Example 26, 6-Chloro-5-nitro-4-phosphonomethylquinolin-2-one] | < 3.00 | > 300 µM | < 3.00 | – | < 3.00 | – | – | –

From patent US5510338A, “Phosphonoalkylquinolin-2-ones as novel antagonists of non-NMDA ionotropic excitatory amino acid receptors” (priority 1994, dated 1996)
